Data: ChEMBL document CHEMBL5579865, “Discovery of Broad-Spectrum Herpes Antiviral Oxazolidinone Amide Derivatives and Their Structure-Activity Relationships” (ACS Med Chem Lett, 2024)
In brackets after ≈: the same amount, converted by molar mass. Activity calls are given as the source filed them. No cut-off for these calls is given here.

Experiments:
[1] = Inhibition of HCMV DNA polymerase extracted from baculovirus infected Sf21 cells using Heterodimeric nucleic acid as substrate preincubated with enzyme for 30 mins followed by substrate and dATP addition measured after 60 mins by biotinylated UTP incorporation based AlphaLISA assay; parameters: species or system Human betaherpesvirus 5
[2] = Inhibition of VZV DNA polymerase extracted from baculovirus infected Sf21 cells using Heterodimeric nucleic acid as substrate preincubated with enzyme for 30 mins followed by substrate and dATP addition measured after 60 mins by biotinylated UTP incorporation based AlphaLISA assay; parameters: species or system Human alphaherpesvirus 3
Human betaherpesvirus 5 = assay: Antiviral activity against HCMV AD169 infected in human MRC5 cells assessed as reduction in viral replication incubated for 72 hrs in presence of 50 % serum by qRT-PCR analysis; format: functional, organism-based; conditions: Human betaherpesvirus 5, AD169, MRC5, 72 h; read-out: EC50
Human alphaherpesvirus 3 [3] = assay: Antiviral activity against VZV Street infected in human MeWo cells assessed as reduction in viral replication incubated for 72 hrs by qRT-PCR analysis; format: functional, organism-based; conditions: Human alphaherpesvirus 3, Street, MeWo, 72 h; read-out: EC50
Human alphaherpesvirus 1 [4] = assay: Antiviral activity against HSV-1 F strain infected in African green monkey Vero cells assessed as reduction in viral replication incubated for 72 hrs by qRT-PCR analysis; format: functional, organism-based; conditions: Human alphaherpesvirus 1, F strain, Vero, 72 h; read-out: EC50
Human alphaherpesvirus 2 = assay: Antiviral activity against HSV-2 G strain infected in African green monkey Vero cells assessed as reduction in viral replication incubated for 72 hrs by qRT-PCR analysis; format: functional, organism-based; conditions: Human alphaherpesvirus 2, G strain, Vero, 72 h; read-out: EC50
[5] = Unbound clearance in Wistar rat at 3 mg/kg,iv administration; format: ADME, organism-based; conditions: in vivo
[6] = Unbound volume of distribution in Wistar rat at 3 mg/kg,iv or 10 mg/kg,po administration; format: ADME, organism-based; conditions: in vivo
[7] = MRT in Wistar rat at 3 mg/kg,iv or 10 mg/kg,po administration; format: ADME, organism-based; conditions: in vivo
[8] = Oral bioavailability in Wistar rat at 10 mg/kg administration; format: ADME, organism-based; conditions: in vivo
[9] = Unbound AUC in Wistar rat at 3 mg/kg,iv or 10 mg/kg,po administration; format: ADME, organism-based; conditions: in vivo
[10] = Unbound fraction in Wistar rat plasma at 3 mg/kg,iv or 10 mg/kg,po administration; format: ADME, organism-based
[11] = target: Voltage-gated inwardly rectifying potassium channel KCNH2 (Homo sapiens, UniProt Q12809); assay: Inhibition of hERG by patch-clamp assay; format: toxicity
[12] = Inhibition of Inward-rectifier potassium channel (unknown origin); parameters: species or system Homo sapiens
[13] = target: Voltage-dependent L-type calcium channel subunit alpha-1C (Homo sapiens, UniProt Q13936); assay: Inhibition of Cav1.2 (unknown origin)
[14] = target: Sodium channel protein type 5 subunit alpha (Homo sapiens, UniProt Q14524); assay: Inhibition of Nav1.5 (unknown origin)
[15] = Unbound clearance in Wistar rat at 0.05 mg/kg,iv administration; format: ADME, organism-based; conditions: in vivo
[16] = Unbound volume of distribution in Wistar rat at 0.05 mg/kg,iv or 10 mg/kg,po administration; format: ADME, organism-based; conditions: in vivo
[17] = MRT in Wistar rat at 0.05 mg/kg,iv or 10 mg/kg,po administration; format: ADME, organism-based; conditions: in vivo
[18] = Unbound AUC in Wistar rat at 0.05 mg/kg,iv or 10 mg/kg,po administration; format: ADME, organism-based; conditions: in vivo
[19] = Unbound fraction in Wistar rat plasma at 0.05 mg/kg,iv or 10 mg/kg,po administration; format: ADME, organism-based
[20] = Solubility in PBS at pH 7; format: physicochemical
[21] = Metabolic stability in human liver microsomes assessed as intrinsic clearance; format: ADME, Microsome; conditions: read-out: CLH
[22] = Unbound clearance in Wistar rat at 1 mg/kg,iv administration; format: ADME, organism-based; conditions: in vivo
[23] = Unbound volume of distribution in Wistar rat at 1 mg/kg,iv or 10 mg/kg,po administration; format: ADME, organism-based; conditions: in vivo
[24] = MRT in Wistar rat at 1 mg/kg,iv or 10 mg/kg,po administration; format: ADME, organism-based; conditions: in vivo
[25] = Unbound AUC in Wistar rat at 1 mg/kg,iv or 10 mg/kg,po administration; format: ADME, organism-based; conditions: in vivo
[26] = Unbound fraction in Wistar rat plasma at 1 mg/kg,iv or 10 mg/kg,po administration; format: ADME, organism-based
Human alphaherpesvirus 1 [27] = assay: Antiviral activity against HSV-1 F strain intranasally infected in BALB/c mouse assessed as increase in mouse survival at po bid administration for 7 days; format: functional, organism-based; conditions: time 7.0 day
Human alphaherpesvirus 1 [28] = assay: Antiviral activity against HSV-1 F strain intranasally infected in BALB/c mouse assessed as increase in mouse survival rate at 150 mg/kg,po bid administration for 7 days relative to control; format: functional; conditions: Human alphaherpesvirus 1, F strain, 168 h, time 7 day
Human alphaherpesvirus 1 [29] = assay: Antiviral activity against HSV-1 F strain intranasally infected in BALB/c mouse assessed as reduction in viral burden in lung at 30 to 150 mg/kg,po bid administration measured after 4 days; format: functional, organism-based; conditions: dose 30-150 mg/kg, time 4.0 day
Human alphaherpesvirus 1 [30] = assay: Antiviral activity against HSV-1 F strain intranasally infected in BALB/c mouse assessed as reduction in viral burden in brain at 30 to 150 mg/kg,po bid administration measured after 4 days by plaque assay; format: functional, organism-based; conditions: dose 30-150 mg/kg, time 4.0 day
Human alphaherpesvirus 1 [31] = assay: Antiviral activity against HSV-1 F strain intranasally infected in BALB/c mouse assessed as increase in mouse survival rate at 150 mg/kg,po bid administrated 2 days before viral infection measured after 2 days; format: functional, organism-based; conditions: time 2.0 day
Human alphaherpesvirus 1 [32] = assay: Antiviral activity against HSV-1 F strain intranasally infected in BALB/c mouse assessed as increase in mouse survival rate at 30 mg/kg,po bid administrated 2 days before viral infection measured after 2 days; format: functional, organism-based; conditions: time 2.0 day
Cytomegalovirus [33] = assay: Antiviral activity against Cytomegalovirus Smith intraperitoneally infected in BALB/c mouse assessed as reduction in viral burden in spleen at 30 mg/kg,po bid administration measured after 4 days by plaque assay; format: functional, organism-based; conditions: route ip, time 4.0 day
Cytomegalovirus [34] = assay: Antiviral activity against Cytomegalovirus Smith intraperitoneally infected in BALB/c mouse assessed as reduction in viral burden in spleen at 150 mg/kg,po bid administration measured after 4 days by plaque assay; format: functional, organism-based; conditions: route ip, time 4.0 day
Cytomegalovirus [35] = assay: Antiviral activity against Cytomegalovirus Smith intraperitoneally infected in BALB/c mouse assessed as reduction in viral burden in salivary gland at 30 mg/kg,po bid administration measured after 10 days by plaque assay; format: functional, organism-based; conditions: route ip, time 10.0 day
Cytomegalovirus [36] = assay: Antiviral activity against Cytomegalovirus Smith intraperitoneally infected in BALB/c mouse assessed as reduction in viral burden in salivary gland at 150 mg/kg,po bid administration measured after 10 days by plaque assay; format: functional, organism-based; conditions: route ip, time 10.0 day
Cytomegalovirus [37] = assay: Antiviral activity against Cytomegalovirus Smith intraperitoneally infected in BALB/c mouse assessed as reduction in viral burden in salivary gland at 25 mg/kg,ip qd administration measured after 10 days by plaque assay; format: functional, organism-based; conditions: time 10.0 day
Cytomegalovirus [38] = assay: Antiviral activity against Cytomegalovirus Smith intraperitoneally infected in BALB/c mouse assessed as reduction in viral burden in salivary gland at 50 mg/kg,po bid administration measured after 10 days by plaque assay; format: functional, organism-based; conditions: route ip, time 10.0 day
Human alphaherpesvirus 1 [39] = assay: Antiviral activity against HSV-1 F strain intranasally infected in BALB/c mouse assessed as increase in mouse survival rate at 120 mg/kg,po bid administrated 2 days before viral infection measured after 2 days; format: functional, organism-based; conditions: time 2.0 day
Human alphaherpesvirus 3 [40] = assay: Antiviral activity against VZV Street infected in human MRC5 cells assessed as reduction in viral replication incubated for 72 hrs by qRT-PCR analysis; format: functional, organism-based; conditions: Human alphaherpesvirus 3, Street, MRC5, 72 h

Chain of Voltage-dependent L-type calcium channel subunit alpha-1C (Q13936 whole entry): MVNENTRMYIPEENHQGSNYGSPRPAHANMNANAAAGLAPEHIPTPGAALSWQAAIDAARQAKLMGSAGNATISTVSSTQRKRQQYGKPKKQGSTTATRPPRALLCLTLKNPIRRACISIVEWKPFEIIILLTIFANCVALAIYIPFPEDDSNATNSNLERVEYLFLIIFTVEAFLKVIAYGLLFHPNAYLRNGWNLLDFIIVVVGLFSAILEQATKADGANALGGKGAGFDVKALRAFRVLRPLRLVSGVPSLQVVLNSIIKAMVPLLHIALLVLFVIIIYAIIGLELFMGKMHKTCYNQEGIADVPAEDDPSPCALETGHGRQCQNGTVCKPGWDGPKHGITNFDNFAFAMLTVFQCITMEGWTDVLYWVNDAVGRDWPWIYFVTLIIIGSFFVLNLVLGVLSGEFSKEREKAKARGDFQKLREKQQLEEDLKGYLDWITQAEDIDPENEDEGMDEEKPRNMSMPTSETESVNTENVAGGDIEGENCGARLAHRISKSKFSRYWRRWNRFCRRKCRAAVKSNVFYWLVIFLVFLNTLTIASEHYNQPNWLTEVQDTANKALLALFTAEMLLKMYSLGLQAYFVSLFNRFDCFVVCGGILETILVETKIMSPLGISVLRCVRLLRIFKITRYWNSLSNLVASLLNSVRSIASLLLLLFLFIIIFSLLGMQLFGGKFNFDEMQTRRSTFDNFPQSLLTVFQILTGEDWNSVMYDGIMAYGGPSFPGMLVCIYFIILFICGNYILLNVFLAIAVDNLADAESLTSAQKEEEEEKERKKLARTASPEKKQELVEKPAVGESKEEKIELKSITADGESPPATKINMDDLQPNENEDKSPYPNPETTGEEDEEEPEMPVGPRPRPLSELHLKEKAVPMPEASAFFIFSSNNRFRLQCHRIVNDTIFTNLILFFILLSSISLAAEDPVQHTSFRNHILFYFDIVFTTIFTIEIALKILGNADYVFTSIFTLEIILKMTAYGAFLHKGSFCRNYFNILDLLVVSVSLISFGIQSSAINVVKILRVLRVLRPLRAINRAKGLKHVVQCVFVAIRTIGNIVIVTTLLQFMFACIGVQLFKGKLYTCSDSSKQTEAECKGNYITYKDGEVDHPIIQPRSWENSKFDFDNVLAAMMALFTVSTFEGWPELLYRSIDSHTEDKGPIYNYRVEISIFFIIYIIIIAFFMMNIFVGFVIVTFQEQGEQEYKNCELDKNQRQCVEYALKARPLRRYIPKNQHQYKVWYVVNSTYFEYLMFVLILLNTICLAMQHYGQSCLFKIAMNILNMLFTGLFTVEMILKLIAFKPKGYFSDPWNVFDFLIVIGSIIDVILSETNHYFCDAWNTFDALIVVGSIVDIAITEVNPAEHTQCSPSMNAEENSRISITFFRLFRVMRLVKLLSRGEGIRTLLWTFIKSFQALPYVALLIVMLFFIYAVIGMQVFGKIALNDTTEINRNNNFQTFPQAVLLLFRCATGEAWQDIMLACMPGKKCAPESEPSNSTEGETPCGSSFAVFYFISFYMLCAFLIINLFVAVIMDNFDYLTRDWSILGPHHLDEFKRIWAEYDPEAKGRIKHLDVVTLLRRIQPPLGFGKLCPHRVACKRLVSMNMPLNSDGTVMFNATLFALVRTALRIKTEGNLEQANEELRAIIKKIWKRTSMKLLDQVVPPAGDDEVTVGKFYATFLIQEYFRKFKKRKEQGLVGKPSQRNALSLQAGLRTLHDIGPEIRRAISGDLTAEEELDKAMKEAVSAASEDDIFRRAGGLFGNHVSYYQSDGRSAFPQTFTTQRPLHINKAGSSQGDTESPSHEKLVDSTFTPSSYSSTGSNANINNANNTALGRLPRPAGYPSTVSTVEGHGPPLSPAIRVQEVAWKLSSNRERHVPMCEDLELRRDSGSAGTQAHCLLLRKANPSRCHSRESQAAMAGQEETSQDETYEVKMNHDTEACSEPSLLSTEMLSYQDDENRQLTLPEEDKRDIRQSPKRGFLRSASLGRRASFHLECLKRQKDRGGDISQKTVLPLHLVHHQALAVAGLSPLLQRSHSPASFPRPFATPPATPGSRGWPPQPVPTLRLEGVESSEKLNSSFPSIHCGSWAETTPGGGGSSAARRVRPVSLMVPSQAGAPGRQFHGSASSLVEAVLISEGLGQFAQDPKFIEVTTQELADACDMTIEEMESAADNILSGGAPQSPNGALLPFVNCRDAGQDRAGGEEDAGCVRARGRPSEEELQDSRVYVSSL
Chain of Sodium channel protein type 5 subunit alpha (Q14524 whole entry): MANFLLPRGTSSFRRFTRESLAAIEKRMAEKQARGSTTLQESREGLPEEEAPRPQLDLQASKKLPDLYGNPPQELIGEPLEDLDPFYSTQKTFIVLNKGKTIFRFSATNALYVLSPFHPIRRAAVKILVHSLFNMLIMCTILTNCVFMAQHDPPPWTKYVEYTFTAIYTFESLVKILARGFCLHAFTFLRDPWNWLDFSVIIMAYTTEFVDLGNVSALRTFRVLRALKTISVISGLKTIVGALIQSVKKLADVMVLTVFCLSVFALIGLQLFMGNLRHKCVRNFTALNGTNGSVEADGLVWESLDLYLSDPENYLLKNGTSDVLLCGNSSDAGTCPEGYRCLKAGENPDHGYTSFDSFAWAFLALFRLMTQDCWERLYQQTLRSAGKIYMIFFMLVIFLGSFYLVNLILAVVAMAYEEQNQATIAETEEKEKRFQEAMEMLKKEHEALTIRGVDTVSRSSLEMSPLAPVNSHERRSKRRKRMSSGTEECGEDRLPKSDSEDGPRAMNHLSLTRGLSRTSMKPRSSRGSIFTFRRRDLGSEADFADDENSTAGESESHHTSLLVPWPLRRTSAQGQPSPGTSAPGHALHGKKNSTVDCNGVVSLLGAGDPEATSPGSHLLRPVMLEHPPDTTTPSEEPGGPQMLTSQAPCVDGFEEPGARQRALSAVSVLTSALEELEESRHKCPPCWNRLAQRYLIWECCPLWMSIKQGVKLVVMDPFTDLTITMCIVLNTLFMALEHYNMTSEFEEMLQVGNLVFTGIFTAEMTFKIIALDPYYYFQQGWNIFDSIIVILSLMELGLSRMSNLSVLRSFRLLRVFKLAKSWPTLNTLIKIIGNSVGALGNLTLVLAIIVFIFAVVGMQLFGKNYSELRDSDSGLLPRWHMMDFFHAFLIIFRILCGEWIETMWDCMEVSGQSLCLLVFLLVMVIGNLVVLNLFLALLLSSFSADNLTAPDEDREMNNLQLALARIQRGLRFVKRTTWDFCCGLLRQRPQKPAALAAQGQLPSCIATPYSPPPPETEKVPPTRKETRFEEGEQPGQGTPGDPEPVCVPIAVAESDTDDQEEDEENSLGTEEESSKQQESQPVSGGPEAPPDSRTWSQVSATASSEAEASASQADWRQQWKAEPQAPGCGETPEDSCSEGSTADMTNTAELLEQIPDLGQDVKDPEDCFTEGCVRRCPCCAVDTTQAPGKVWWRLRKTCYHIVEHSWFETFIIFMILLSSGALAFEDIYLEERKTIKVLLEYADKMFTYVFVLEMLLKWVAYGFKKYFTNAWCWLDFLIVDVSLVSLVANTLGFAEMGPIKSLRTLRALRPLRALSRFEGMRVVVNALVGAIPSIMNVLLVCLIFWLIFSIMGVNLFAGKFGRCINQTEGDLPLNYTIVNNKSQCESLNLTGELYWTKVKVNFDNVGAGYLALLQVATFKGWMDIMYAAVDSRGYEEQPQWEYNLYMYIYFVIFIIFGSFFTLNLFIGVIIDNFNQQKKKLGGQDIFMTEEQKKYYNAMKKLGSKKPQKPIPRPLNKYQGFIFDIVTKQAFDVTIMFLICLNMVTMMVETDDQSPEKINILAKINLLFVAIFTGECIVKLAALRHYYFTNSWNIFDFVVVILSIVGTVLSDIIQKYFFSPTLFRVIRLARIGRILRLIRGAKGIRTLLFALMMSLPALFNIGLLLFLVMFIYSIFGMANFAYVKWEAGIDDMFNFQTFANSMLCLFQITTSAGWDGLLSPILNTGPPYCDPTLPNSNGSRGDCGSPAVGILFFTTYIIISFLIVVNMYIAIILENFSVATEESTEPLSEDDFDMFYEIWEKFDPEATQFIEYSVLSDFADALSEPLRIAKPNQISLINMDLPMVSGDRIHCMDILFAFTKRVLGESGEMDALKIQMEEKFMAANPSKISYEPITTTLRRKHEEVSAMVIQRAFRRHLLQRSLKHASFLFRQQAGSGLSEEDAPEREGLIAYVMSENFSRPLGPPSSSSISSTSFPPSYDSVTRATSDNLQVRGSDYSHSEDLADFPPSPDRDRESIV

Compound: COc1nc(NC(=O)Cc2ccc(Cl)cc2)ccc1C[C@H]1COC(=O)N1
- IC50 [1]: 44 nM
- IC50 [2]: 15 nM
- EC50 (Human betaherpesvirus 5): 249 nM
- EC50 (Human alphaherpesvirus 3 [3]): 46 nM
- EC50 (Human alphaherpesvirus 1 [4]): 70 nM
- EC50 (Human alphaherpesvirus 2): 85 nM
- CL free [5]: 444 mL/min/kg
- Vdu [6]: 15 L/kg
- MRT [7]: 36 min
- bioavailability [8]: 62%
- fAUC [9]: 0.299 µM·h
- fraction unbound [10]: 0.025
- IC50 [11]: 16000 nM
- IC50 [12]: 14200 nM
- IC50 [13]: 13500 nM
- IC50 [14]: 10000 nM

Compound: COc1cc(NC(=O)Cc2ccc(Cl)cc2Cl)ccc1C[C@H]1COC(=O)N1
- IC50 [1]: 16 nM
- IC50 [2]: 12 nM
- EC50 (Human betaherpesvirus 5): 349 nM
- EC50 (Human alphaherpesvirus 3 [3]): 154 nM
- EC50 (Human alphaherpesvirus 1 [4]): 198 nM
- EC50 (Human alphaherpesvirus 2): 222 nM
- CL free [15]: 720 mL/min/kg
- Vdu [16]: 33 L/kg
- MRT [17]: 42 min
- fAUC [18]: 0.003 µM·h
- fraction unbound [19]: 0.022
- IC50 [12]: 20900 nM
- IC50 [13]: 9600 nM
- IC50 [14]: 8200 nM
- solubility [20]: 28 µM (≈ 11.5 µg/mL)
- CLint scaled [21]: 20 mL/min/kg

Compound: COc1cc(NC(=O)Cc2ccc(C(F)(F)F)cc2)ccc1C[C@H]1COC(=O)N1
- IC50 [1]: 22 nM
- IC50 [2]: 13 nM
- EC50 (Human betaherpesvirus 5): 641 nM
- EC50 (Human alphaherpesvirus 3 [3]): 126 nM
- EC50 (Human alphaherpesvirus 1 [4]): 115 nM
- EC50 (Human alphaherpesvirus 2): 114 nM
- CL free [22]: 187 mL/min/kg
- Vdu [23]: 20 L/kg
- MRT [24]: 108 min
- bioavailability [8]: 71%
- fAUC [25]: 0.222 µM·h
- fraction unbound [26]: 0.052
- IC50 [11]: 27000 nM
- IC50 [12]: 25100 nM
- IC50 [13]: 7600 nM
- IC50 [14]: 13200 nM
- Activity (Human alphaherpesvirus 1 [27]): Dose-Dependent Effect
- survival at 150 mg/kg (Human alphaherpesvirus 1 [28]): 100%
- Activity (Human alphaherpesvirus 1 [29]): Active
- Activity (Human alphaherpesvirus 1 [30]): Active
- Activity (Human alphaherpesvirus 1 [31]): Active
- Activity (Human alphaherpesvirus 1 [32]): Active
- Activity (Cytomegalovirus [33]): inactive
- Activity (Cytomegalovirus [34]): Active
- Activity (Cytomegalovirus [35]): inactive
- Activity (Cytomegalovirus [36]): Active
- solubility [20]: 129 µM (≈ 52.7 µg/mL)
- CLint scaled [21]: 20 mL/min/kg

Compound: Nc1nc2c(ncn2COC(CO)CO)c(=O)[nH]1
- Activity (Cytomegalovirus [37]): inactive
- Activity (Cytomegalovirus [38]): inactive

Compound: Nc1nc2c(ncn2COCCO)c(=O)[nH]1
- Activity (Human alphaherpesvirus 1 [39]): Active

Compound: COc1cc(NC(=O)Cc2ccc(Br)cc2)ccc1C[C@H]1COC(=O)N1
- IC50 [1]: < 4 nM
- IC50 [2]: < 4 nM
- EC50 (Human betaherpesvirus 5): 420 nM
- EC50 (Human alphaherpesvirus 1 [4]): 124 nM
- EC50 (Human alphaherpesvirus 3 [40]): 231 nM
- EC50 (Human alphaherpesvirus 2): 110 nM
- CL free [15]: 1168 mL/min/kg
- Vdu [16]: 68 L/kg
- MRT [17]: 54 min
- bioavailability [8]: 23%
- fAUC [18]: 0.002 µM·h
- fraction unbound [19]: 0.022
- IC50 [12]: 21100 nM
- IC50 [13]: 11100 nM
- IC50 [14]: 12100 nM
- solubility [20]: 90 µM (≈ 37.7 µg/mL)
- CLint scaled [21]: < 16 mL/min/kg

Compound: COc1cc(NC(=O)Cc2ccc(Cl)cc2)ccc1C[C@H]1COC(=O)N1
- IC50 [1]: 49 nM
- IC50 [2]: 17 nM
- EC50 (Human betaherpesvirus 5): 370 nM
- EC50 (Human alphaherpesvirus 3 [3]): 97 nM
- EC50 (Human alphaherpesvirus 1 [4]): 100 nM
- EC50 (Human alphaherpesvirus 2): 170 nM
- CL free [5]: 605 mL/min/kg
- Vdu [6]: 24 L/kg
- MRT [7]: 42 min
- bioavailability [8]: 27%
- fAUC [9]: 0.228 µM·h
- fraction unbound [10]: 0.027
- IC50 [11]: 20000 nM
- IC50 [12]: 24500 nM
- IC50 [13]: 12900 nM
- IC50 [14]: 10500 nM
- solubility [20]: 161 µM (≈ 60.3 µg/mL)
- CLint scaled [21]: 16 mL/min/kg
